Patent publication US10759781B2, “Substituted guanidine derivatives” (UBE INDUSTRIES, LTD., priority 2015, dated 2020)
Where a name gives a salt, the structure may show the parent alone.

Each molecule was assayed against T1, Rat Plasma VAP-1 (Rattus norvegicus, UniProt O08590) (assay: (Ex vivo) rat plasma VAP-1 inhibition test after oral administration of the compound). Conditions: 3 hours after oral administration, SD male rats, read-out: inhibition ratio (plasma VAP-1, ex vivo).
T1 construct: from tissue; host or cells: plasma of SD male rats (7-12 weeks old) after oral dosing
T1 sequence (O08590 28-763 limits assumed): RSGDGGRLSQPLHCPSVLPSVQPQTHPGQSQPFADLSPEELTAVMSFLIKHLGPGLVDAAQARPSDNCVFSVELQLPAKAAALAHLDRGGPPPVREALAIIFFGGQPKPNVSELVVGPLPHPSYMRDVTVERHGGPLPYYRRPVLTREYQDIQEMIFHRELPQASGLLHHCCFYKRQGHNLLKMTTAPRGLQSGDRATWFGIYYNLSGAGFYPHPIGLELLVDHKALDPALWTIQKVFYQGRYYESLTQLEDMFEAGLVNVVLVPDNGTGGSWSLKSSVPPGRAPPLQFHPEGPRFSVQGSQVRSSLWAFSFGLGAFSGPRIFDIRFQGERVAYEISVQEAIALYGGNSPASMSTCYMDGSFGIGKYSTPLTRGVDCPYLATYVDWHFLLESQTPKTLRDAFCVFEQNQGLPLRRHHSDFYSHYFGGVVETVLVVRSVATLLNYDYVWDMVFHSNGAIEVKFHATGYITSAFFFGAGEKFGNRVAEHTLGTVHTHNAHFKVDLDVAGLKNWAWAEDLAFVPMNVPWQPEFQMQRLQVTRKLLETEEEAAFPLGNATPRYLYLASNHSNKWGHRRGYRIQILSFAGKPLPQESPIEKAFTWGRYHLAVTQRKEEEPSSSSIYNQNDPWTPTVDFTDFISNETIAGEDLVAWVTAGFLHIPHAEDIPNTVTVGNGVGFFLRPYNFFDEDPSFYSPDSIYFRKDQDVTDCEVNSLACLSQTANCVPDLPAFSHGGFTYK
Format: in vivo
Description: (Ex Vivo) Rat Plasma VAP-1 Inhibition Test after Oral Administration of the Compound
The compound was orally administered (0.3-10 mg/kg) to 7-12 week old SD male rats in the non-fasting state. Under anesthesia, the blood was collected in heparin tubes from the jugular vein before the administration and 3, 8 and 24 hours after the administration. The blood was centrifuged at 14000 rpm for 10 minutes to get plasma. The VAP-1 enzyme activity in the plasma was measured by radiochemical enzyme assay.
The radiochemical enzyme assay was conducted by modifying the method of P. H. Yu et al. (Diabetologia 40 1243 (1997)). ^14C-benzylamine (2.5 μM) was added to the obtained plasma, and was incubated at 37° C. for 3 hours. The reaction was terminated by the addition of 100 μL of 2 M citric acid solution to the reaction solution. The oxidative product was extracted using a toluene/ethyl acetate mixture and the radioactivity was measured with a liquid scintillation counter. The inhibition ratio of the compound was calculated using the following equation. Inhibition ratio={1−[Plasma VAP-1 activity after administration of the compound]/[Plasma VAP-1 activity before administration]}×100

Row | SMILES | inhibition in vivo at 0.3 mg/kg
1 | CCON=C1CCN(c2ncc(-c3cccc(COC(=O)NC(=N)N)c3F)cn2)CC1 [Example 53, 3-{2-[4-(Ethoxyimino)piperidin-1-yl]pyrimidin-5-yl}-2-fluorobenzyl carbamimidoylcarbamate] | ≥ 50%
2 | CON=C1CCN(c2ncc(-c3cccc(COC(=O)NC(=N)N)c3F)cn2)CC1 [Example 51, 2-Fluoro-3-{2-[4-(methoxyimino)piperidin-1-yl]pyrimidin-5-yl}benzyl carbamimidoylcarbamate] | ≥ 50%
3 | N=C(N)NC(=O)OCc1cccc(-c2cnc(N3CC(=NOCC(CO)COC(=O)c4ccccc4)C3)nc2)c1F (stereo not drawn) [Example 83, 3-[({1-[5-(3-{[(Carbamimidoylcarbamoyl)oxy]methyl}-2-fluorophenyl)pyrimidin-2-yl]azetidin-3-ylidene}amino)oxy]-2-(hydroxymethyl)propyl benzoate] | ≥ 50%

The next lines start with the values.

Row | inhibition in vivo at 0.3 mg/kg | SMILES
4 | ≥ 50% | CNC(=O)CCON=C1CCN(c2ncc(-c3cccc(COC(=O)NC(=N)N)c3F)cn2)CC1 [Example 151, 2-Fluoro-3-[2-(4-{[3-(methylamino)-3-oxopropoxy]imino}piperidin-1-yl)pyrimidin-5-yl]benzyl carbamimidoylcarbamate]
5 | ≥ 50% | CCOC(=O)CCON=C1CCN(c2ncc(-c3cccc(COC(=O)NC(=N)N)c3F)cn2)CC1 [Example 149, Ethyl 3-[({1-[5-(3-{[(carbamimidoylcarbamoyl)oxy]methyl}-2-fluorophenyl)pyrimidin-2-yl]piperidin-4-ylidene}amino)oxy]propanoate]

The molecules below were run against T2, Human VAP-1 enzyme (Homo sapiens, UniProt Q16853) (assay: Human VAP-1 enzyme inhibition test). Conditions: 1 h; compound 30 nM; 14C-benzylamine 100 μM; read-out: inhibition ratio (human VAP-1 enzyme).
T2 construct: purchased R&D Systems, Inc
T2 sequence (Q16853 1-763): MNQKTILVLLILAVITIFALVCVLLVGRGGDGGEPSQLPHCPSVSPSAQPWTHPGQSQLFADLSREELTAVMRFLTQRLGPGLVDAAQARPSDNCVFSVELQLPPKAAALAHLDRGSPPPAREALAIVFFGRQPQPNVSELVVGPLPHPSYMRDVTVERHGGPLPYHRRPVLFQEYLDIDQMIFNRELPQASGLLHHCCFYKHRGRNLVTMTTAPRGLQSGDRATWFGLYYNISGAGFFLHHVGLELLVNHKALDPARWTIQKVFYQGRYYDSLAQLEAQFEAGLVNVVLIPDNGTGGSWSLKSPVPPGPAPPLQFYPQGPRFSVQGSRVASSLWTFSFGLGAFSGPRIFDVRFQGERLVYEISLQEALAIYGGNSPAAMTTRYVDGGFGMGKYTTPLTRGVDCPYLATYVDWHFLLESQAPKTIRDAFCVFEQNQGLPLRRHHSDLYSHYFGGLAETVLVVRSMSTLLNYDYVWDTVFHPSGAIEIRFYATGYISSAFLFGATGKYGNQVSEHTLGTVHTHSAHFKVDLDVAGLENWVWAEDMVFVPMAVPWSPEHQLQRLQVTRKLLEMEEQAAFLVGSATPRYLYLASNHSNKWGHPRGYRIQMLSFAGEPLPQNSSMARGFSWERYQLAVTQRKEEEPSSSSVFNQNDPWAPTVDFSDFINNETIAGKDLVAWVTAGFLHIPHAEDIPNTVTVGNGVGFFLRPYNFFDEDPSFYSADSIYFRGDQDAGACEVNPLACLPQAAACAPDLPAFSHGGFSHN
Format: biochemical
Description: Human VAP-1 enzyme inhibition test
This test was conducted by modifying the method of P. H. Yu et al. (Diabetologia 40 1243 (1997)). Human VAP-1 enzyme (R&D Systems, Inc.) was pre-incubated in a 96-well plate with the compound dissolved in dimethylsulfoxide at room temperature for 20 minutes. Next, in a solution to the final volume of 200 μL, the enzyme reaction solution was incubated with ^14C-benzylamine (final concentration 100 μM) at 37° C. for 1 hour. The reaction was terminated by the addition of 100 μL of 2 M citric acid solution to the reaction solution. The oxidative product was extracted using a toluene/ethyl acetate mixture and the radioactivity was measured with a liquid scintillation counter. The inhibition ratio of the compound was calculated using the following equation. Inhibition ratio={1−[VAP-1 enzyme activity after treatment with the compound]/[VAP-1 enzyme activity in the presence of dimethylsulfoxide alone without the compound]}×100

Row | SMILES | inhibition at 0.03 µM
6 | COC(CO)CCON=C1CN(c2ncc(-c3cccc(COC(=O)NC(=N)N)c3F)cn2)C1 (stereo not drawn) [Example 76, 2-Fluoro-3-(2-{3-[(4-hydroxy-3-methoxybutoxy)imino]azetidin-1-yl}pyrimidin-5-yl)benzyl carbamimidoylcarbamate] | ≥ 50%
7 | N=C(N)NC(=O)OCc1cccc(-c2cnc(N3CC(=NOCC(CO)CF)C3)nc2)c1F (stereo not drawn) [Example 75, 2-Fluoro-3-[2-(3-{[3-fluoro-2-(hydroxymethyl)propoxy]imino}azetidin-1-yl)pyrimidin-5-yl]benzyl carbamimidoylcarbamate] | ≥ 50%
8 | N=C(N)NC(=O)OCc1cccc(-c2cnc(N3CC(=NOCCO)C3)nc2)c1F [Example 71, 2-Fluoro-3-(2-{3-[(2-hydroxyethoxy)imino]azetidin-1-yl}pyrimidin-5-yl)benzyl carbamimidoylcarbamate hydrochloride] | ≥ 50%
9 | N=C(N)NC(=O)OCc1cccc(-c2cnc(N3CC(=NOCC(F)F)C3)nc2)c1F [Example 6, 3-(2-{3-[(2,2-Difluoroethoxy)imino]azetidin-1-yl}pyrimidin-5-yl)-2-fluorobenzyl carbamimidoylcarbamate] | ≥ 50%
10 | CNC(=O)CCON=C1CN(c2ncc(-c3cccc(COC(=O)NC(=N)N)c3F)cn2)C1 [Example 113, 2-Fluoro-3-[2-(3-{[3-(methylamino)-3-oxopropoxy]imino}azetidin-1-yl)pyrimidin-5-yl]benzyl carbamimidoylcarbamate] | ≥ 50%
11 | COCC(CO)CON=C1CN(c2ncc(-c3cccc(COC(=O)NC(=N)N)c3F)cn2)C1 (stereo not drawn) [Example 100, 2-Fluoro-3-[2-(3-{[3-hydroxy-2-(methoxymethyl)propoxy]imino}azetidin-1-yl)pyrimidin-5-yl]benzyl carbamimidoylcarbamate] | ≥ 50%
12 | CON=C1CN(c2ncc(-c3cccc(COC(=O)NC(=N)N)c3F)cc2Cl)C1 [Example 44, 3-{5-Chloro-6-[3-(methoxyimino)azetidin-1-yl]pyridin-3-yl}-2-fluorobenzyl carbamimidoylcarbamate] | ≥ 50%
13 | CC(=O)NCC(CO)CON=C1CN(c2ncc(-c3cccc(COC(=O)NC(=N)N)c3F)cn2)C1 (stereo not drawn) [Example 120, 3-[2-(3-{[3-Acetamido-2-(hydroxymethyl)propoxy]imino}azetidin-1-yl)pyrimidin-5-yl]-2-fluorobenzyl carbamimidoylcarbamate] | ≥ 50%
14 | CNC(=O)CON=C1CN(c2ncc(-c3cccc(COC(=O)NC(=N)N)c3F)cn2)C1 [Example 111, 2-Fluoro-3-[2-(3-{[2-(methylamino)-2-oxoethoxy]imino}azetidin-1-yl)pyrimidin-5-yl]benzyl carbamimidoylcarbamate] | ≥ 50%

Next, values leading:

Row | inhibition at 0.03 µM | SMILES
15 | ≥ 50% | CNC(=O)CCON=C1CCN(c2ncc(-c3cccc(COC(=O)NC(=N)N)c3F)cn2)CC1 [Example 151, 2-Fluoro-3-[2-(4-{[3-(methylamino)-3-oxopropoxy]imino}piperidin-1-yl)pyrimidin-5-yl]benzyl carbamimidoylcarbamate]
16 | ≥ 50% | N=C(N)NC(=O)OCc1cccc(-c2cnc(N3CC(=NOCC4CCC(=O)O4)C3)nc2)c1F (stereo not drawn) [Example 132, 2-Fluoro-3-[2-(3-{[(5-oxotetrahydrofuran-2-yl)methoxy]imino}azetidin-1-yl)pyrimidin-5-yl]benzyl carbamimidoylcarbamate]
17 | ≥ 50% | CC(=O)N1CCOC(CON=C2CN(c3ncc(-c4cccc(COC(=O)NC(=N)N)c4F)cn3)C2)C1 (stereo not drawn) [Example 131, 3-[2-(3-{[(4-Acetylmorpholin-2-yl)methoxy]imino}azetidin-1-yl)pyrimidin-5-yl]-2-fluorobenzyl carbamimidoylcarbamate]
18 | ≥ 50% | O=C(O)CCC(=O)O.[2H]C([2H])([2H])ON=C1CN(c2ncc(-c3cccc(COC(=O)NC(=N)N)c3F)cc2F)C1 [Example 207, 2-Fluoro-3-(5-fluoro-6-{3-[(methoxy-d3)imino]azetidin-1-yl}pyridin-3-yl)benzyl carbamimidoylcarbamate 1/2 succinate]
19 | ≥ 50% | CN1CCOC(CON=C2CN(c3ncc(-c4cccc(COC(=O)NC(=N)N)c4F)cn3)C2)C1 (stereo not drawn) [Example 130, 2-Fluoro-3-[2-(3-{[(4-methylmorpholin-2-yl)methoxy]imino}azetidin-1-yl)pyrimidin-5-yl]benzyl carbamimidoylcarbamate]
20 | ≥ 50% | O=C(O)CCC(=O)O.[2H]C([2H])([2H])ON=C1CN(c2ncc(-c3cccc(COC(=O)NC(=N)N)c3F)cn2)C1 [Example 195, 2-Fluoro-3-(2-{3-[(methoxy-d3)imino]azetidin-1-yl}pyrimidin-5-yl)benzyl carbamimidoylcarbamate 1/2 succinate]
21 | ≥ 50% | N=C(N)NC(=O)OCc1cccc(-c2cnc(N3CC(=NOCCF)C3)nc2)c1F [Example 196, 2-Fluoro-3-(2-{3-[(2-fluoroethoxy)imino]azetidin-1-yl}pyrimidin-5-yl)benzyl carbamimidoylcarbamate 1/2 L-tartrate]
